# PMC10991380, “Cloning, functional expression, and pharmacological characterization of inwardly rectifying potassium channels (Kir) from Apis mellifera” (Scientific Reports, 2024)
# Columns and labels:
# Assay in all cases: two-electrode voltage clamp, Xenopus oocytes
# Type in all cases: cell-based, Apis mellifera
# Conditions in all cases: 96 mM KCl Ringer, pH 7.6; holding potential -80 mV; VU041 in DMSO
# [1] = tested on: T1, AmKir2.3
# T1 construct: homotetramer; N-terminal tail 31 residues shorter than AmKir2.2
# [2] = tested on: T2, AmKir1.1
# T2 construct: homotetramer; longer N-terminal and shorter C-terminal tail than AmKir2
# [3] = tested on: T3, AmKir2.2
# T3 construct: homotetramer; N-terminal tail 31 residues longer than AmKir2.3
smiles,measurement,setting,value
O=C(Cn1nc(C(F)(F)F)c2c1CCCC2)N1CCCc2ccccc21 [VU041],% inhibition at 10^-5 M,[1],24.04 ± 1.92%
same,% inhibition at 10^-4 M,[2],48.94 ± 3.79%
same,% inhibition at 10^-4 M,[3],45.65 ± 5.01%
